Reference: PMC6440464 (PeerJ, 2019)
Values joined by “and” are separate entries in the source; they are usually repeats but may differ in a detail not shown here. Equal entries are not always repeated.

Assay: Pharmacokinetics study after separate oral administration in rats (HPLC-MS of plasma)
Type: in vivo, Sprague-Dawley rats
Settings: for Plasma concentrations: individual rats NO. 1-5; for AUC(0-t) / Cmax / Tmax / t1/2z: labelled substance = analyte, individual rats No1-No5
Protocol: A total of 15 SPF Sprague-Dawley rats (SD, male, 190–210 g) were provided by Sino-British Sippr/BK Lab Animal Company Ltd. (Shanghai, China). The rats were kept in standard conditions (22–26 °C; 40–60% relative humidity; 12 h light/dark cycle). Throughout the rearing period, the animals had access to food and water ad libitum. Animal experiments were conducted in accordance with the standard ethical guidelines of the Laboratory Animal Management Committee of Jiangsu Province (SYXK (SU) 2016-0011).
Following 1 week of adaptation, the rats were fasted for about 12 h before dosing, with free access to water. […] After administration of the first dose, blood samples were taken from the retro-orbital vein at 0, 5, 15, 30, 60, 90, 120, 180, 240, 360, 480, and 1,440 min and collected in heparinized tubes. The samples were centrifuged at 3,500 rpm for 10 min at 4 °C and the plasma was stored at −80 °C until analysis.
An Agilent 1,200 series HPLC system (Agilent Technologies, Waldbronn, Germany) equipped with a quaternary pump on-line degasser, auto-sampler and column oven, and an SL G1946D quadruple mass spectrometer (Agilent Technologies, Santa Clara, CA, USA) equipped with an electrospray ionization (ESI) source, were used for separation and detection. Data were acquired and analyzed using Agilent ChemStation Software Version A.01.00 (Agilent Technologies, Santa Clara, CA, USA).
The separation was carried out with an Amethyst C18-H column (150 × 4.6 mm, 5 μm, Sepax Technologies, Newark, DE, USA) with a guard column SB-C18 (10 × 4.6 mm, 5 μm, Phenomenex Technologies, Torrance, USA) at a constant temperature of 25 °C.
The mass spectra were acquired using ESI interfaced to a single quadrupole mass spectrometer. The ionization conditions were as follows: drying gas (N2) flow rate of 11 L/min, drying gas temperature of 350 °C, nebulizing gas (N2) pressure of 35 psi, capillary voltage of 3,500 V, quad temperature of 100 °C, and fragment voltage of 110 V. A series of m/z were monitored using a timed program according to the retention times and characteristic ions for the corresponding HPLC-MS peak obtained by scanning from m/z 100–1,000 in the standard sample.
Briefly, an aliquot of plasma sample (100 μL) was spiked with 5% formic acid (10 μL) in centrifuge tube. Subsequently, hydrochloric acid (2 mol/L, 10 μL) and IS solution (960.00 ng/mL, 20 μL) were added. Then ethyl acetate/n-butyl alcohol (1:1 v/v; 1,000 μL) was used to extract the components. The samples were then homogenized by vortex mixing and centrifuged for 10 min at 14,000 rpm. After centrifugation, 800 μL of supernatant was transferred to another centrifuge tube and the sample was evaporated to dryness. The residues were dissolved in 100 μL of methanol and centrifuged for 10 min at 12,000 rpm. 50 μL of the supernatant was transferred to the vial and an aliquot of 5 μL was injected into the HPLC-MS system for analysis.
DAS 2.0 (Chinese Pharmacological Association, Shanghai, China) was used to calculate the pharmacokinetic parameters using the non-compartment model, including the area under curve (AUC), mean residence time (MRT), half-life ( t1/2z), clearance rate (CL), maximum plasma concentration (Cmax), and time (Tmax). All results are expressed as mean ± standard deviation (SD). One way analysis of variance followed by […] was used for comparison of different groups using Graph pad prism 5 software. A p-value of <0.05 was considered statistically significant.

[1] = IQ group (oral IQ 50 mg/kg), rat plasma
[2] = QG group (oral QG 50 mg/kg), rat plasma
[3] = Qr group (oral Qr 50 mg/kg), rat plasma

O=c1c(O)c(-c2ccc(O)c(O)c2)oc2cc(O)cc(O)c12 [Qr, Quercetin]
Plasma concentrations (IQ group (oral IQ 50 mg/kg), 5 min): 97 ng/mL and 72.1 ng/mL
Plasma concentrations (IQ group (oral IQ 50 mg/kg), 120 min): 1913.8 ng/mL and 3969.5 ng/mL and 3663.4 ng/mL and 3592.6 ng/mL and 4482.8 ng/mL
Plasma concentrations (IQ group (oral IQ 50 mg/kg), 180 min): 2424.7 ng/mL and 3384.3 ng/mL and 2628.6 ng/mL and 529.3 ng/mL and 3851.1 ng/mL
Plasma concentrations (IQ group (oral IQ 50 mg/kg), 240 min): 1940 ng/mL and 3381.2 ng/mL and 2408.4 ng/mL and 1320.4 ng/mL and 1250.9 ng/mL
Plasma concentrations (IQ group (oral IQ 50 mg/kg), 360 min): 1313.4 ng/mL and 2984 ng/mL and 4511 ng/mL and 1879.1 ng/mL and 1080.1 ng/mL
Plasma concentrations (IQ group (oral IQ 50 mg/kg), 480 min): 1825.8 ng/mL and 2829.2 ng/mL and 642.1 ng/mL and 975.9 ng/mL and 503.3 ng/mL
Plasma concentrations (IQ group (oral IQ 50 mg/kg), 1440 min): 90.3 ng/mL and 1333.2 ng/mL and 1663.4 ng/mL and 210.4 ng/mL and 61.1 ng/mL
AUC(0-t) [1]: 2661.03 mg·min/L and 1721.03 mg·min/L and 1261.04 mg·min/L and 1844.61 mg·min/L and 3575.83 mg·min/L
Cmax [1]: 8460 ng/mL and 10370.3 ng/mL and 4575 ng/mL and 4452 ng/mL and 5147 ng/mL
Tmax [1]: 30 min and 60 min
t1/2z [1]: 2.34307 h and 7.45293 h and 4.46562 h and 15.5735 h
Detection in rat plasma (IQ group: oral IQ 50 mg/kg): measured
Plasma concentrations (QG group (oral QG 50 mg/kg), 5 min): 0 ng/mL
Plasma concentrations (QG group (oral QG 50 mg/kg), 120 min): 0 ng/mL and 178 ng/mL and 350 ng/mL and 264.3 ng/mL and 91.3 ng/mL
Plasma concentrations (QG group (oral QG 50 mg/kg), 180 min): 1405.7 ng/mL and 1522.4 ng/mL and 4112 ng/mL and 56.4 ng/mL and 1551 ng/mL
Plasma concentrations (QG group (oral QG 50 mg/kg), 240 min): 2385.9 ng/mL and 4434.6 ng/mL and 6808.5 ng/mL and 1445.9 ng/mL and 1915.9 ng/mL
Plasma concentrations (QG group (oral QG 50 mg/kg), 360 min): 997.6 ng/mL and 4127.1 ng/mL and 4268 ng/mL and 6817.8 ng/mL and 3639.1 ng/mL
Plasma concentrations (QG group (oral QG 50 mg/kg), 480 min): 880.9 ng/mL and 5383.5 ng/mL and 6785.2 ng/mL and 4353.5 ng/mL and 4449.8 ng/mL
Plasma concentrations (QG group (oral QG 50 mg/kg), 1440 min): 254.4 ng/mL and 878.4 ng/mL and 519.9 ng/mL and 325 ng/mL and 366.2 ng/mL
AUC(0-t) [2]: 1100.93 mg·min/L and 4341.94 mg·min/L and 5313.01 mg·min/L and 3484.77 mg·min/L and 3287.74 mg·min/L
Cmax [2]: 2385.9 ng/mL and 5384 ng/mL and 6808 ng/mL and 6818 ng/mL and 4450 ng/mL
Tmax [2]: 480 min (2×) and 240 min and 360 min
t1/2z [2]: 9.05187 h and 8.35598 h and 5.58873 h and 4.1639 h and 3.28813 h
Plasma concentrations (Qr group (oral Qr 50 mg/kg), 5 min): 640.7 ng/mL and 69.5 ng/mL and 57.3 ng/mL and 802.4 ng/mL and 171.1 ng/mL
Plasma concentrations (Qr group (oral Qr 50 mg/kg), 120 min): 4624.9 ng/mL and 4603.8 ng/mL and 5199.9 ng/mL and 1294.5 ng/mL and 3649 ng/mL
Plasma concentrations (Qr group (oral Qr 50 mg/kg), 180 min): 3310.6 ng/mL and 4410.7 ng/mL and 6178.3 ng/mL and 1059.8 ng/mL and 3541.5 ng/mL
Plasma concentrations (Qr group (oral Qr 50 mg/kg), 240 min): 1969.1 ng/mL and 3087.5 ng/mL and 1750.4 ng/mL and 2254.1 ng/mL
Plasma concentrations (Qr group (oral Qr 50 mg/kg), 360 min): 3069.3 ng/mL and 1565.6 ng/mL and 2529.6 ng/mL and 1025.9 ng/mL and 1740.7 ng/mL
Plasma concentrations (Qr group (oral Qr 50 mg/kg), 480 min): 1701.5 ng/mL and 2705.9 ng/mL and 3008.7 ng/mL and 1156.8 ng/mL and 828.8 ng/mL
Plasma concentrations (Qr group (oral Qr 50 mg/kg), 1440 min): 416.7 ng/mL and 431.9 ng/mL and 601.2 ng/mL and 220.4 ng/mL and 329.6 ng/mL
AUC(0-t) [3]: 2664.65 mg·min/L and 3200.67 mg·min/L and 3831.17 mg·min/L and 1368.81 mg·min/L and 1887.27 mg·min/L
Cmax [3]: 7855 ng/mL and 9701 ng/mL and 9916 ng/mL and 3579 ng/mL and 6280 ng/mL
Tmax [3]: 90 min and 30 min
t1/2z [3]: 6.20775 h and 8.55312 h and 6.68888 h and 7.31962 h
Detection in rat plasma (Qr group: oral Qr 50 mg/kg): could be detected in rat plasma
CL (Qr group: oral Qr 50 mg/kg, rat plasma, mean ± SD, n = 5): 20 ± 8 mL/min/kg
